Measurements: PMC5827532, “Triphenylphosphonium Moiety Modulates Proteolytic Stability and Potentiates Neuroprotective Activity of Antioxidant Tetrapeptides in Vitro” (Frontiers in Pharmacology, 2018)
Like-named read-outs stand apart in the source and are kept apart here.

Columns and labels:
trypsin = molecular target: T1, trypsin (Sus scrofa, UniProt P00761); experiment: Tryptic cleavage of oligopeptides followed by reversed-phase HPLC; type: in vitro ADME, porcine; conditions: trypsin 5 μg/mL, PBS pH 7.4; for half-life at 0.5 mg/mL: pig, oligopeptide 0.5 mg/mL, read-out: 50% degradation rate (DR50)
T1 construct: purchased PanEco company (Russia); host or cells: porcine pancreas
T1 sequence (P00761 9-231): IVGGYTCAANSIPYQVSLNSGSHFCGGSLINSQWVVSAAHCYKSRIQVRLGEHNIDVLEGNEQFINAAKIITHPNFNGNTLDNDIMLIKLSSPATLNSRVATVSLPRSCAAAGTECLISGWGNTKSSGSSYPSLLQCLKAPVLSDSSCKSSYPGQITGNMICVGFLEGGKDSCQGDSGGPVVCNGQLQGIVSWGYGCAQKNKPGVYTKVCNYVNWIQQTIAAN
Description: The reaction mixture containing an oligopeptide (0.5 mg/mL) and trypsin (5 μg/mL) in phosphate buffered saline (PBS, pH 7.4) was incubated for different time intervals, and aliquots of digestion products were collected for reversed-phase high-performance liquid chromatography (HPLC). HPLC analysis was carried out on a Dionex UltiMate 3000 system (Thermo Scientific) using a Kromasil C18 column, 5 μm, 4.6 mm × 150 mm (AkzoNobel). Mobile phase contained (A) acetonitrile with 0.1% trifluoroacetic acid, (B) milli-Q water with 0.1% trifluoroacetic acid. Gradient scheme was as follows, 0–10 min: from 100% A to 100% B, 10–20 min: 100% A to 100% B, 20–25 min: 100% B. Flow rate was 0.5 mL/min; injection volume was 10 μL. The detection was performed at wavelengths of 220 and 260 nm. Chromatographic data were collected and treated with the aid of Chromeleon 6.80 software (Thermo Scientific). Peak height of the uncleaved oligopeptides was measured to calculate remaining concentration of the oligopeptides after tryptic cleavage. Concentration values were presented as mean ± SD (n = 3).
Enzymatic cleavage of the oligopeptides was performed in PBS solution using pancreatic trypsin as a pharmacologically relevant endopeptidase ([Vlieghe et al., 2010]; [Danial et al., 2012]). To compare proteolytic resistance of the initial and TPP-modified oligopeptides, the reaction conditions were optimized to provide a relatively slow kinetics. The concentration of uncleaved oligopeptides was detected by means of HPLC. In the absence of trypsin, both the unmodified tetrapeptides and TPP derivatives were stable during at least 48 h incubation at ambient temperature.

[1] = Cytoprotection against menadione-induced damage (MTS assay); conditions: rat, PC-12 cells
Description: (§1) PC-12 cells were subjected to oxidative damage by CoCl2, L-glutamic acid, or menadione and treated with the oligopeptides as follows. Briefly, the pre-grown cells were seeded in a 96-well plate at a density of 60 000 cells per well and cultured overnight in FBS-containing α-MEM. Next day, the medium was replaced by a fresh one without FBS, and further manipulations were performed in FBS-free medium.
(§2) Eventually, viability of the treated cells was evaluated with the use of MTS assay (Promega) on an Infinite M200 PRO microplate analyzer (TECAN). The cell viability was presented as a percentage of that of the control cells cultured in the absence of compounds (100% viability).

[2] = Cytoprotection against L-glutamic acid-induced damage (MTS assay); conditions: rat
Description: (§3) PC-12 cells were subjected to oxidative damage by CoCl2, L-glutamic acid, or menadione and treated with the oligopeptides as follows. Briefly, the pre-grown cells were seeded in a 96-well plate at a density of 60 000 cells per well and cultured overnight in FBS-containing α-MEM. Next day, the medium was replaced by a fresh one without FBS, and further manipulations were performed in FBS-free medium. The oxidative agents and oligopeptides were supplemented to the medium in three ways: (i) the cells were pre-cultured in the presence of oligopeptides for 24 h, then the medium was replaced by a fresh one supplemented with a damaging factor and the cells were further cultured with the factor for 24 h (CoCl2, L-glutamic acid) or 3 h (menadione) (‘pretreatment’); (ii) the damaging factor and oligopeptide were added together to cells and cultured for 24 h (CoCl2, L-glutamic acid) or 3 h (menadione) followed by medium replacement (‘cotreatment’); (iii) following treatment with menadione, the cells were additionally cultured with the oligopeptides for 24 h (‘posttreatment’). The concentration of compounds was as follows: oligopeptides 5 mM, CoCl2 2.5 mM, L-glutamic acid 50 mM, menadione 25 μM.
as §2

PC-12 cells [3] = test system: PC-12 cells
Description: as §3, §2

PC-12 cells [4] = experiment: Cytoprotection against menadione-induced damage (MTS assay); conditions: for protective effect: pretreatment 24 h, 5 mM, menadione 25 μM
Description: as §1, §2

PC-12 cells [5] = experiment: H2O2-induced oxidative stress in cells (DCFDA fluorescence); type: cell-based, rat; conditions: 5 mM, 1 h, 100 mM H2O2, HBSS
Description: PC-12 cells were seeded in a 96-well plate and allowed to form a subconfluent monolayer. The cells were washed with Hank’s balanced salt solution (HBSS), pre-stained with 20 μM DCFDA and rewashed with HBSS two times. The oxidative stress in the stained cells was induced by incubating them in HBSS solution containing 100 mM H2O2 for 1 h in CO2-incubator. The synthesized oligopeptides or glutathione were added to the extracellular solution in the concentration range from 1 to 10 mM in HBSS and incubated for 1 h. The bottom fluorescent signal was acquired from the treated cells on an Infinite M200PRO microplate analyzer (TECAN) at λex = 488 nm and λem = 535 nm.

PC-12 cells [6] = experiment: Cytoprotection against L-glutamic acid-induced damage (MTS assay); conditions: 50 mM LGlu
Description: as §3, §2

[7] = test system: prostate cancer (PC-3) cells; conditions: same supplementation; ref Akhmadishina et al., 2017; cited from earlier work
[8] = same reaction; ref Akhmadishina et al., 2017; cited from earlier work
PC-12 cells [9] = experiment: MTT proliferation (cytotoxicity) assay; type: cell-based, rat; conditions: over the whole concentration range (1 μM to 3.2 mM)
Description: (§4) PC-12 rat pheochromocytoma cell line (ATTC) and human skin fibroblasts (HSF) were used. HSF were isolated as detailed in ([Tsepaeva et al., 2017]). The cells were cultured aseptically in α-MEM containing 10% fetal bovine serum (FBS), 2 mM L-glutamine, 100 U/mL penicillin and 100 μg/mL streptomycin at 37°C in humidified air atmosphere with 5% CO2.
(§5) The cytotoxicity of the oligopeptides was evaluated in the concentration range from 1 μM to 3.2 mM by means of the MTT proliferation assay in 96-well microplates as described in [Tsepaeva et al. (2017)]. The cell viability was presented as a percentage of control cells grown without compounds (100% viability value). Half-maximal inhibitory concentrations (IC50) were calculated from cell viability curves using OriginPro 8.0 software.

[10] = Fenton-like CoCl2/H2O2 reaction, ROS detected with DCFDA probe
Description: Fenton-like reaction was initiated by mixing 0.2 mM cobalt chloride (CoCl2) and 22 mM hydrogen peroxide (H2O2) in PBS and carried out for 60 min in the presence of or without a serially diluted oligopeptide. ROS generated in the Fenton reaction were detected by using DCFDA fluorescent probe (5 μM) at λex = 488 nm and λem = 535 nm. The effect of oligopeptides was measured as a percentage of ROS generation rate in the control reaction without effectors (100%) ([Akhmadishina et al., 2017]).

[11] = test system: human skin fibroblasts (HSF); experiment: MTT proliferation (cytotoxicity) assay; type: cell-based
Description: as §4, §5

Dynamic light scattering = type: physicochemical; conditions: data not shown

`N=C(N)NCCC[C@H](NC(=O)[C@@H](N)Cc1ccc(O)cc1)C(=O)N[C@@H](Cc1ccccc1)C(=O)N[C@@H](CCCCN)C(N)=O` [YRFK-NH2] gave a half-life at 0.5 mg/mL (trypsin; isolated enzyme trypsin) of ~6.17 h.

Work on `CC1=CC(=O)c2ccccc2C1=O` [Men, menadione] yielded a viability at 3 h, 25 μM [1] of ~17%.

Compound `N[C@@H](CCC(=O)O)C(=O)O` [^LGlu, L-glutamic acid] has a viability at 24 h, 50 mM [2] of 37.1%.

In the case of `N[C@@H](CCC(=O)N[C@@H](CS)C(=O)NCC(=O)O)C(=O)O` [GSH, γ-Glu-Cys-Gly], the “effect on cell damage” value (PC-12 cells [3]; cotreatment, 5 mM, CoCl2 2.5 mM) is reported as “insignificantly diminished cell damage”, the protective effect (PC-12 cells [3]; pretreatment 24 h, 5 mM, CoCl2 2.5 mM) is reported as “did not exhibit a protective effect” and the viability at 5000 µM (PC-12 cells [4]; Rattus norvegicus, PC-12, 24 h, read-out: cell viability) is reported as 32%. For the same compound, the protective effect (PC-12 cells [4]) was “not when applied prior to the treatment”, the “effect on DCFDA signal” value (PC-12 cells [5]) was “almost completely decreased the signal” and the protective effect (PC-12 cells [6]; 5 mM) was “relatively low protective effect”. For the same compound, the effect on proliferation [7] was “greatly stimulated proliferation” and the EC50 [8] was 544 ± 39 µM.

For `N=C(N)NCCC[C@H](NC(=O)[C@H](Cc1ccc(O)cc1)NC(=O)CCCCC[P+](c1ccccc1)(c1ccccc1)c1ccccc1)C(=O)N[C@@H](Cc1ccccc1)C(=O)N[C@@H](CCCCN)C(N)=O` [TPP-6-YRFK-NH2], the cell viability (PC-12 cells [3]; rat) was ~126%, the increase of proliferation (PC-12 cells [9]) was “up to 20%” and the “concentrations at which the inhibitory effect toward the reaction was observed” value ([10]; 0.2 mM CoCl2, 22 mM H2O2, PBS) was > 250 µM. The EC50 ([10]; ROS generation in CoCl2/H2O2 reaction, read-out: half-maximal inhibitory concentration (EC50)) was 500 ± 25 µM, the “concentration at which cell proliferation was decreased” value ([11]; effect disappeared in lower and higher concentration ranges) was “around 100 μM” and the aggregative properties (Dynamic light scattering) was “formed well-defined submicron aggregates”. For the same compound, the half-life at 0.5 mg/mL (trypsin; pancreatic trypsin in PBS) was ~1.17 h and the “time during which cleavage was initially retarded” value (trypsin) was “approximately 60 min”.

In the case of `[Cl-].[Cl-].[Co+2]` [CoCl2, cobalt (II) chloride], the “cell viability, damaging factor alone” value (PC-12 cells [3]; CoCl2 2.5 mM, 24 h) is reported as 55%.

For `N=C(N)NCCC[C@H](NC(=O)[C@H](Cc1ccc(O)cc1)NC(=O)CC[P+](c1ccccc1)(c1ccccc1)c1ccccc1)C(=O)N[C@@H](Cc1ccccc1)C(=O)N[C@@H](CCCCN)C(N)=O` [TPP-3-YRFK-NH2], the half-life at 0.5 mg/mL (trypsin; pancreatic trypsin in PBS) was ~0.767 h and the “extent of cleavage before plateau” value (trypsin) was ~80%.

With `NCCCC[C@H](NC(=O)[C@H](Cc1ccccc1)NC(=O)[C@@H](CCCN=C(N)N)NC(=O)[C@@H](N)Cc1ccc(O)cc1)C(N)=O` [YrFK-NH2] the half-life at 0.5 mg/mL (trypsin; isolated enzyme trypsin) was ~14.6 h.

With `N=C(N)NCCC[C@@H](NC(=O)[C@H](Cc1ccc(O)cc1)NC(=O)CCCCC[P+](c1ccccc1)(c1ccccc1)c1ccccc1)C(=O)N[C@@H](Cc1ccccc1)C(=O)N[C@@H](CCCCN)C(N)=O` [TPP-6-YrFK-NH2] the protective effect (PC-12 cells [4]) was “effectively prevented cell damage”, the “half-maximal inhibition of proliferation” value ([11]; MTT, 3 days) was “millimolar concentrations” and the aggregative properties (Dynamic light scattering) was “formed well-defined submicron aggregates”. For the same compound, the protective effect (PC-12 cells [6]; pretreatment, supplemented 24 h prior to damage) was “completely prevented cell damage” and the “reaction time without any degradation” value (trypsin) was “at least 17 h”.
